Measurements reported in EP0517412A1, “Pharmaceutical formulations of a benzodiazepine” (MERCK SHARP & DOHME LTD., priority 1991, dated 1992).

Legend:
Assay type in all cases: physicochemical
[1] = maximum solubility of the benzodiazepine in carriers of the invention
[2] = solubility of the benzodiazepine in prior-art type carriers
solubility in water = experiment: solubility in water

## Cc1cccc(NC(=O)NC2N=C(c3ccccc3)c3ccccc3N(C)C2=O)c1 (stereo not drawn) [(A), 3R(+)-N-(2,3-dihydro-1-methyl-2-oxo-5-phenyl-1H-1,4-benzodiazepin-3-yl)-N'-(3-methylphenyl)-urea]
[1]; Method 2 (room temperature method, 20°C, Silverson mixer), Labrafil M2125 CS, Tween 80, propylene glycol, purified water
  amount that can be dissolved: up to 6 % (w/w)
[1]; carrier Labrasol/Tween 80
  maximum solubility for the benzodiazepine: ~240 mg/g
[1]; carrier comprising Imwitor 742 and Tween 80
  maximum solubility for the benzodiazepine: ~140 mg/g
[1]; corresponding Labrafil-containing carrier
  maximum solubility for the benzodiazepine: 60 to 80 mg/g
[1]; mixture of carrier ingredients compared with the separate ingredients
  solubility in the mixture of ingredients of the carrier: more than in the separate ingredients
[1]; without heating
  percentage of the active ingredient that can be dissolved in the carrier: around 6%
[2]; benzodiazepine substituted for cyclosporin in formulation type of GB 2 228 198 (Maisine and Cremophore RH40)
  solubility (carrier a poor solvent): less than 10 mg/g
[2]; benzodiazepine substituted for cyclosporin in formulation type of GB 2015339 (Labrafil M1944CS and ethanol with corn oil or olive oil; or glycerol mono-oleate and ethanol)
  solubility: ~20 mg/g
[2]; benzodiazepine substituted for dihydrocyclosporin in formulation type of BE 895 724 (ethanol, Imwitor 742, esterified corn oil)
  solubility: ~60 mg/g
Solubility in water
  solubility: < 2 µg/mL
